The nature of data set [1]: Toxicity in Syrian hamster infected with Leishmania infantum BCN150 promastigotes assessed as liver lesions at 20 mg/kg/day, po for 10 days. The format is organism-based, Mesocricetus auratus. Conditions: in vivo, 240 h.
In data set [2] the test system is Leishmania infantum. In words: Antileishmanial activity against Leishmania infantum amastigotes infected in Syrian hamster assessed as reduction in parasite load in spleen at 20 mg/kg/day, po for 10 days relative to control. The format is functional. Conditions: 240 h.
For data set [3], the system named is Leishmania infantum. In words: Antileishmanial activity against Leishmania infantum amastigotes infected in Syrian hamster assessed as parasite load within spleen at 20 mg/kg/day, po for 10 days (reference value: 9151063.431 +/- 2606154.975/g). The format is functional.
The subject of data set [4] is Leishmania donovani. In words: Antileishmanial activity against Leishmania donovani 1SR promastigotes assessed as parasite growth at IC50 concentration incubated with compound for 3 days under selective pressure and selection cycle repeated 10 times for total of 33 days and measured at 3 to 33 days of selection. The format is functional, organism-based.
Data set [5] is described as follows: Toxicity in Syrian hamster infected with Leishmania infantum BCN150 promastigotes assessed as effect on alkaline phosphatase level at 20 mg/kg/day, po for 10 days measured after the last treatment. It counts as organism-based, Mesocricetus auratus. Conditions: in vivo, 240 h.
Data set [6] can be described thus: Toxicity in Syrian hamster infected with Leishmania infantum BCN150 promastigotes assessed as distress effect at 20 mg/kg/day, po for 10 days measured daily. The note with it: in vivo, 240 h. The format is organism-based, Mesocricetus auratus.
Data set [7] can be described thus: Toxicity in Syrian hamster infected with Leishmania infantum BCN150 promastigotes assessed as spleen weight at 20 mg/kg/day, po for 10 days (reference value: 0.182 +/- 0.036 g). It counts as organism-based, Mesocricetus auratus. The note with it: in vivo, 240 h.
Data set [8] can be described thus: Plasma concentration in syrian hamster infected with Leishmania infantum BCN150 promastigote at 40 mg/kg/day, po for 10 days formulated with 8% v/v DMSO. It counts as ADME, organism-based, Mesocricetus auratus.
A short description of data set [9]: Chemical stability of compound in PBS at 20 uM at pH 8 exposed to air bubbling followed by supplementation with human serum albumin measured for 6 hrs by UV-vis spectrophotometry analysis. The format is physicochemical.
For data set [10], the system named is Leishmania infantum. In words: Antileishmanial activity against Leishmania infantum amastigotes infected in Syrian hamster assessed as reduction in parasite load at 40 mg/kg/day, po for 10 days formulated with 8% v/v DMSO relative to control. The format is functional. Conditions: 240 h.
Data set [11] can be described thus: Toxicity in Syrian hamster infected with Leishmania infantum BCN150 promastigotes assessed as spleen weight at 40 mg/kg/day, po for 10 days formulated with 30% v/v cyclodextrin (reference value: 0.183 +/- 0.04 g). Conditions: in vivo, 240 h. The format is organism-based, Mesocricetus auratus.
For data set [12], the system named is Leishmania infantum. Description: Antileishmanial activity against Leishmania infantum amastigotes infected in Syrian hamster assessed as reduction in parasite load at 40 mg/kg/day, po for 10 days formulated with 30% v/v cyclodextrin relative to control. The format is functional. Conditions: 240 h.
The nature of data set [13]: Stability of the compound in phosphate buffer assessed as compound abundance at 450 nm at 5 uM measured at pH 8 by fluorescence emission spectrum analysis. The format is physicochemical. The note with it: read-out: Stability.
A short description of data set [14]: Toxicity in Syrian hamster infected with Leishmania infantum BCN150 promastigotes assessed as effect on alkaline phosphatase level at 40 mg/kg/day, po for 10 days formulated with 30 to 50% v/v cyclodextrin measured after the last treatment. It counts as organism-based, Mesocricetus auratus. The note with it: in vivo, 240 h.
A short description of data set [15]: Tmax in BALB/c mouse at 20 mg/kg, po measured upto 72 hrs by snapshot method. The format is ADME, organism-based. The note with it: in vivo.
Data set [16] can be described thus: AUC (total) in BALB/c mouse at 20 mg/kg, po measured upto 72 hrs by snapshot method. The format is ADME, organism-based. More on the design: time < 72 hr, dose 20 mg/kg, route oral. The note with it: in vivo.
A short description of data set [17]: Binding affinity to trypsin in bovine pancreas in phosphate buffer assessed as increase in emission intensity at 530 nm at 5 uM measured at pH 8 by fluorescence emission spectrum analysis. The format is ADME, Bos taurus. The note with it: cattle.
Data set [18] in a line: Cytotoxicity against human THP1 cells by MTT assay. The format is cell-based, THP-1. (In general: Tetrazolium dyes change colour on reduction, which living cells bring about.)
Data set [19] in a line: Toxicity in Syrian hamster infected with Leishmania infantum BCN150 promastigotes assessed as effect on plasma urea level at 40 mg/kg/day, po for 10 days formulated with 8% v/v DMSO. The note with it: in vivo, 240 h. It counts as organism-based, Mesocricetus auratus.
Data set [20] can be described thus: Plasma concentration in syrian hamster infected with Leishmania infantum BCN150 promastigote at 40 mg/kg/day, po for 10 days formulated with 30% v/v cyclodextrin. It counts as ADME, organism-based, Mesocricetus auratus.
Data set [21] deals with Leishmania donovani. In words: Antileishmanial activity against Leishmania donovani 1SR promastigotes assessed as parasite growth at IC50 concentration incubated with compound for 3 days under selective pressure and selection cycle repeated 10 times for total of 33 days and measured at 3 to 33 days of selection relative to control. It counts as functional.
The subject of data set [22] is Leishmania donovani. Description: Antileishmanial activity against antimony resistant Leishmania donovani BPK190 promastigotes infected in C57BL/6 mouse bone marrow-derived macrophages assessed as reduction in parasite load at 5 uM treated with compound at 24 hrs post-infection measured after 72 hrs post infection by q-PCR analysis relative to control. It counts as functional.

A further data set concerns the target T1, Beta-casein (Bos taurus, UniProt P02666).
T1 sequence (P02666 whole entry): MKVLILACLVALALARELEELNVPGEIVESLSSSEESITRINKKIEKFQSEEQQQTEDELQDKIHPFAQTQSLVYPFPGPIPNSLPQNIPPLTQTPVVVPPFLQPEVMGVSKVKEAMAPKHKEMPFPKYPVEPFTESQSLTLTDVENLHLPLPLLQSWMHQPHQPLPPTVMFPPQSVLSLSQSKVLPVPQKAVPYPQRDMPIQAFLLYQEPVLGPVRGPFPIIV
In words: Binding affinity to bovine milk beta-casein in phosphate buffer assessed as compound lifetime at 530 nm at 5 uM measured at pH 8 by fluorescence emission spectrum analysis. Conditions: cattle. The format is ADME.

Data set [23] is described as follows: Toxicity in Syrian hamster infected with Leishmania infantum BCN150 promastigotes assessed as effect on plasma creatinine level at 40 mg/kg/day, po for 10 days formulated with 8% v/v DMSO. The format is organism-based, Mesocricetus auratus. Conditions: in vivo, 240 h.
Data set [24] in a line: Chemical stability of compound in PBS at 20 uM at pH 8 exposed to 2-mins nitrogen bubbling followed by supplementation with human serum albumin measured for 6 hrs by UV-vis spectrophotometry analysis. It counts as physicochemical.
Another data set relates to hERG. Description: Selectivity ratio of IC50 for human ERG to EC50 for antileishmanial activity against luciferase expressing intracellular amastigote stage of Leishmania infantum infected in human THP1 cells. The format is toxicity, cell-based.
A short description of data set [25]: Toxicity in Syrian hamster infected with Leishmania infantum BCN150 promastigotes assessed as adverse effects at 20 mg/kg/every 12 hrs, po for 10 days formulated with 30% v/v cyclodextrin measured daily. The format is organism-based, Mesocricetus auratus. Conditions: in vivo.
In data set [26] the test system is Leishmania donovani. Description: Antileishmanial activity against antimony sensitive Leishmania donovani BPK091 promastigotes infected in C57BL/6 mouse bone marrow-derived macrophages assessed as reduction in parasite load at 10 uM treated with compound at 24 hrs post-infection measured after 72 hrs post infection by q-PCR analysis relative to control. The format is functional.

Data set [27] can be described thus: Toxicity in Syrian hamster infected with Leishmania infantum BCN150 promastigotes assessed as effect on AST level at 40 mg/kg/day, po for 10 days formulated with 30 to 50% v/v cyclodextrin measured after the last treatment. It counts as organism-based, Mesocricetus auratus. Conditions: in vivo, 240 h.
Data set [28] deals with Leishmania infantum. In words: Anti-leishmanial activity against Leishmania infantum BCN150 promastigotes infected in Syrian hamster assessed as decrease in anti-leishmanial IgG level at 40 mg/kg/day, po for 10 days formulated with 30 to 50 % v/v cyclodextrin by ELISA. It counts as functional, organism-based. Background: In an ELISA, binding on a coated surface is turned into a signal by an enzyme label.

For a further data set, the target named is Albumin (Bos taurus, UniProt P02769). In words: Binding affinity to bovine serum albumin in phosphate buffer assessed as compound lifetime at 530 nm at 5 uM measured at pH 8 by fluorescence emission spectrum analysis. The format is ADME. The note with it: cattle, isolated protein.
Albumin, sequence (P02769 whole entry): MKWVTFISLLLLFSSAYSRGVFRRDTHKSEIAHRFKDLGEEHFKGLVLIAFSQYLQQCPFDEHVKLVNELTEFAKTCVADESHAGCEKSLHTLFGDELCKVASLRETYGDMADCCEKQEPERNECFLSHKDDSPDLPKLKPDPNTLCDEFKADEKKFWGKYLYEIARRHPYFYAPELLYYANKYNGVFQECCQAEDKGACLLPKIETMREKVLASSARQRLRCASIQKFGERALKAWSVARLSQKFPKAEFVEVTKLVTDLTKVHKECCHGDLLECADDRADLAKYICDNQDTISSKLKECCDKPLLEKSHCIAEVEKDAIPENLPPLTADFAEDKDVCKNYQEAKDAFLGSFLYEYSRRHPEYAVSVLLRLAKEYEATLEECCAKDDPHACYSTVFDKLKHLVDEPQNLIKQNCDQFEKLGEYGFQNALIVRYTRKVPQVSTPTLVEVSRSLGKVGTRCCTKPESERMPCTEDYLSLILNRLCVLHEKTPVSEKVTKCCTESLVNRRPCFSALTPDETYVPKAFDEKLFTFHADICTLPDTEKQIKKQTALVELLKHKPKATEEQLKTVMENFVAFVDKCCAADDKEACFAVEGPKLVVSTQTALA

The structures appear in SMILES notation. Where “and” joins values, the source holds several entries; their conditions need not be identical. Equal values may be shown once. Calls of active or inactive are those of the source. The rule behind the calls is not given here.

We go through 2 compounds from ChEMBL document CHEMBL4311972, “Discovery of a benzothiophene-flavonol halting miltefosine and antimonial drug resistance in Leishmania parasites through the application of medicinal chemistry, screening and genomics” (Eur J Med Chem, 2019).

What is called inhibition in vivo is the percentage by which the read-out fell short of the control. One may read the inhibition as the percentage by which the read-out fell short of the control. As to `CCCCCCCCCCCCCCCCOP(=O)([O-])OCC[N+](C)(C)C` [MILTEFOSINE], the Activity entry is “Non-Toxic” in [1]; 244476.109 g⁻¹ with Leishmania infantum [3]; “Non-Toxic” in data set [5]; “Toxic” in data set [6]; 0.191 g in [7]. For the same compound, the inhibition in vivo at 20 mg/kg/day with Leishmania infantum [2] stood at 97.3%. The inhibition entry with Leishmania donovani [4] is “inactive”.

As a reminder, the Tmax is the time from dosing to the highest level. As usually defined, the AUC is concentration integrated over time. Low values mean less exposure, high ones more exposure. Usually CC50 stands for the concentration giving 50% cytotoxicity. Lower therefore signals greater toxicity to the cells. For the compound `COc1ccc2oc(-c3csc4ccccc34)c(O)c(=O)c2c1`, the values for the concentration at 240 h in data set [8] and in [20] were 44 nM and 76 nM, respectively. Also, the Stability entry in data set [9] and in data set [24] was “Stable” each time. The inhibition in vivo at 40 mg/kg/day came out at 25.9% with Leishmania infantum [10] and 28.8% in the data set on Leishmania infantum [12]. The Activity in data set [11] is listed as 0.719 g; in data set [14], “Non-Toxic”; in [17], “Active”; in data set [19], “Non-Toxic”; in the data set on Leishmania donovani [21] it was below 50%; in data set [23], “Non-Toxic”. Moreover, the Activity entry in [25] and in data set [27] was “Non-Toxic” throughout. For the same compound, the remaining at 5 µM in data set [13] lay within 90 to 95%. In addition, in [15], the time to peak (Tmax) was 1 h. The area under the curve (AUC) at 72 h in [16] is 38.5 µM·h and 12500 ng·h/mL. The CC50 in [18] lay in the range of 25 to 50 µM. In the data set with Leishmania donovani [22], the inhibition at 5 µM turned out to be 78%. In addition, the Time on Beta-casein and at Albumin was 5.5 nanoseconds in each case. The selectivity ratio in the data set on hERG turned out to be 50. Moreover, the inhibition at 10 µM in the data set with Leishmania donovani [26] came to 69%. In addition, the inhibition entry with Leishmania infantum [28] was “Active”.
